These results are taken from patent US20240309007A1, “CRYSTALLINE FORMS OF 3-{4-[(2R)-2-AMINOPROPOXY]PHENYL}-N-[(1R)- 1-(3-FLUOROPHENYL) ETHYL]IMIDAZO[1,2-B]PYRIDAZIN-6-AMINE AND SALTS THEREOF” (ANHEART THERAPEUTICS (HANGZHOU) CO., LTD., priority 2021, published 2024).

The series is described as follows: Stability under stress conditions (XRPD and HPLC purity). It counts as physicochemical. Here is the method:
A predetermined amount of the crystalline form A of Compound 1 adipate was stored under the following conditions: (1) open to air under 25° C./60% RH for one or two weeks, (2) open to air under 40° C./75% RH for one or two weeks, (3) open to air under 80° C. for one day, and (4) exposed to light for 10 days. Crystalline form and chemical impurity were checked by XRPD and HPLC, respectively.
In Table 5, Sample No. 1 was a crystalline form A starting material before any test; Samples Nos. 2 and 3 were subject to condition (1) described above; Samples Nos. 4 and 5 were subject to condition (2) described above; Samples No. 6 was subject to condition (3) described above; and Samples Nos. 7 and 8 were subject to condition (4) described above where Sample No. 7 was not covered and Sample No. 8 was completely covered by a tin foil as a comparison.

Setting [1] is: Exposure to light (1.2 million lux h), 10 days, completely covered by a tin foil (comparison).
Setting [2] is: Exposure to light (1.2 million lux h), 10 days, not covered.
Setting [3] is: open to air, 25° C./60% RH, 1 week.
The mark [4] stands for this setting: open to air, 25° C./60% RH, 2 weeks.
Setting [5] is: open to air, 40° C./75% RH, 1 week.
Setting [6] is: open to air, 40° C./75% RH, 2 weeks.
Where [7] appears, read: starting material before any test.

`C[C@@H](N)COc1ccc(-c2cnc3ccc(N[C@H](C)c4cccc(F)c4)nn23)cc1` [crystalline form A of Compound 1 adipate, 3-{4-[(2R)-2-aminopropoxy]phenyl}-N-[(1R)-1-(3-fluorophenyl)ethyl]imidazo[1,2-b]pyridazin-6-amine]: the “crystalline form on storage (physical stability)” value is given as “remains unchanged”; the “physical and chemical stability (in words)” value was “superior physical and chemical stability”; the “purity on storage (chemical stability)” value is reported as “essentially unchanged”. Under setting [1], the “Purity (%)” value is reported as 99.81% and the XRPD result is reported as “Form A”. Moreover, under setting [2], the “Purity (%)” value is 99.79% and the XRPD entry is reported as “Form A”. Under setting [3], the “Purity (%)” value came out at 99.81% and the XRPD result was “Form A”. Under setting [4], the “Purity (%)” value is on record as 99.79% and the XRPD result is “Form A”. Also, under setting [5], the “Purity (%)” value is on record as 99.84% and the XRPD result is “Form A”. Under setting [6], the “Purity (%)” value is recorded as 99.81% and the XRPD entry was “Form A”. For the same molecule, where the note is “open to air, 80° C., 1 day”, the “Purity (%)” value is 99.68% and the XRPD result is given as “Form A”. For the same molecule, under setting [7], the “Purity (%)” value worked out at 99.86% and the XRPD entry was “Form A”.
